Assay results from article PMC5503536, “Development of [^11C]vemurafenib employing a carbon-11 carbonylative Stille coupling and preliminary evaluation in mice bearing melanoma tumor xenografts” (Oncotarget, 2017).
One block for each compound: values may come before it.

Tests used:
[1] = test system: Colo829 (BRAF^V600E) cells; experiment: Cell titer blue cell viability assay, Colo829; format: cell-based; conditions: Homo sapiens, COLO-829
Description: (§1) Having a reliable synthesis route to obtain [^11C]vemurafenib, cell lines had to be selected to evaluate the tumor targeting potential of [^11C]vemurafenib. Two melanoma cell lines were selected based on reported mutational status of BRAF: Colo829 (BRAF^V600E) and MeWo (BRAF^wt). Both cell lines were analyzed by Fluorescence Activated Cell Sorting (FACS) using a BRAF antibody (recognizing both wild-type and BRAF^V600E) and a BRAF^V600E selective antibody for assessment of target expression (Figure 2A/2B). […] Furthermore, both the cells as well as the xenografts derived from the cell lines were sequenced to confirm the expression of BRAF and the mutational status thereof. […] (V600E) and MeWo cells and xenografts were wild-type. […] So while the BRAF^V600E kinase is sensitive to vemurafenib treatment, it appears that a certain level of mutated protein expression is required for this sensitivity, as both cell lines expressed the mutation to an extent, as determined by FACS. In contrast sequencing only detected the V600E mutation in the Colo829, indicative of higher expression. […]
(§2) Vemurafenib stock solutions of 1 mM in DMSO were prepared and diluted with PBS to a concentration of 10 μM (1% DMSO). […] Finally the fluorescence was measured using a TriStar^2 LB942 plate reader (Berthold Technologies, Bad Wildbad, Germany). […]

[2] = test system: MeWo (BRAF^wt) cells; experiment: Cell titer blue cell viability assay, MeWo; format: cell-based; conditions: 120 h incubation, CellTiter-Blue
Description: as §1, §2

[3] = parameters: method as in PMID 23060265; conditions: phase I trial with 32 patients; cited from earlier work
[4] = parameters: method as in PMID 23060265; conditions: phase III, vs patients treated with dacarbazine; cited from earlier work
[5] = test system: BRAF^V600E cells; parameters: method as in PMID 20149136; conditions: cited from earlier work
[6] = test system: BRAF^wt cells; parameters: method as in PMID 20149136; conditions: cited from earlier work
[7] = test system: P-gp; conditions: cited from earlier work
[8] = test system: BCRP; conditions: cited from earlier work
[9] = test system: Colo829 xenograft tumor sections; experiment: Autoradiography on Colo829 xenograft sections; format: binding; conditions: co-incubation with unmodified vemurafenib 100 μM, tracer only = 100%
Description: (§3) To determine the binding potential of [^11C]vemurafenib to tumor tissue expressing BRAF^wt or BRAF^V600E, autoradiography studies on xenograft sections and in vitro cellular uptake studies were performed. Sections of tumor xenografts derived from the aforementioned cell lines were incubated with [^11C]vemurafenib.
(§4) Colo829 and MeWo xenograft sections (10 μm thickness) were pre-treated three times with 5 mM Tris-HCl buffer (pH 7.4) for 5 min.. Sections were dried under a gentle air flow before incubation for 30 min. with [^11C]vemurafenib and the following conditions: (A) 5 mM Tris-HCl, pH 7.4; (B) 5 mM Tris-HCl, pH 7.4 and isotopically unmodified vemurafenib at 100 μM (n = 4 for each incubation condition). Washing was performed using Tris-HCl (3×) followed by dipping in ice cold water. After drying in an air stream, tumor sections were exposed to a phosphor-imaging screen for 15 min. Data was quantified as average signal intensity per surface area and were represented relative to the tracer only (A) conditions, which was set at 100%. Error bars indicate standard deviations. Quantification of binding was performed using ImageQuantTL v8.1.0.0 (GE Healthcare, Buckinghamshire, UK) by drawing regions of interest around the full tumor sections.

[10] = test system: MeWo xenograft tumor sections; experiment: Autoradiography on MeWo xenograft sections; format: binding; conditions: co-incubation with unmodified vemurafenib 100 μM, tracer only = 100%
Description: as §3, §4

[11] = test system: Colo829 cells; experiment: In vitro cell uptake, Colo829; format: cell-based
Description: (§5) To determine binding of [^11C]vemurafenib in vitro to intact tumor cells a cell uptake study was performed by incubation of tumor cells in suspension with [^11C]vemurafenib, followed by removal of the supernatant and washing of the cells with PBS (phosphate buffered saline). […] While in vitro experiments can be of great value to predict tracer target binding, the experiments exclude many of the factors observed in vivo, for PET-tracer validation. Therefore in vivo experiments are of the utmost importance for PET-tracer validation. […]
(§6) Colo829 or MeWo cells (1*10^6) suspended in growth medium were incubated in triplicate in centrifuge tubes at 37°C with 1 MBq of [^11C]vemurafenib (corresponding to 0.02 nmol of vemurafenib) for 30 min. […] All fractions (cells, supernatant and PBS) were counted for radioactivity using a gamma counter (Wallac 1210 Compugamma, PerkinElmer, Waltham, MA, USA) and the cell bound/internalized percentage of [^11C]vemurafenib was determined as the fraction of activity in the cell pellet divided by the total activity (cells, supernatant and PBS) corrected for background (medium only) and vehicle treated conditions.

[12] = test system: MeWo cells; experiment: In vitro cell uptake, MeWo; format: cell-based
Description: as §5, §6

[13] = Plasma metabolite analysis (in vivo stability); parameters: species or system athymic nu/nu mice; conditions: for Parent (%): plasma, i.v., non-tumor bearing mice
Description: The cartridge was washed with 5 mL of H2O to collect polar radioactive metabolites.

[14] = test system: Colo829 (BRAF^V600E) xenografts; experiment: Ex vivo biodistribution, Colo829 xenograft bearing mice; format: in vivo, athymic nu/nu mice; conditions: 60 min p.i.
Description: (§7) To evaluate the in vivo tumor targeting potential an ex vivo biodistribution study was performed in mice bearing the aforementioned melanoma xenografts. Tumor bearing mice were injected with 20–25 MBq of [^11C]vemurafenib (corresponding to 0.36–0.45 nmol of vemurafenib) and sacrificed 60 minutes post injection. Subsequently organs of interest were excised and counted for activity.
(§8) Nude mice (Athymic nu/nu, Harlan, Horst, The Netherlands) bearing two tumors (obtained by injection of MeWo or Colo829 cells, 2*10^6 per site) of the same xenograft line on their left and right flank, received an injection of 25 MBq [^11C]vemurafenib (corresponding to 0.45 nmol of vemurafenib) via the ocular plexus. The mice were sacrificed and dissected at 60 min. post-injection. Blood, urine, skin, left tumor, right tumor, muscle, heart, colon, lung, liver, kidney and brain were collected, weighed and counted for radioactivity in a gamma counter (Wallac 1210 Compugamma, PerkinElmer, Waltham, MA, USA). Biodistribution data are expressed as percentage of injected dose per gram (%ID/g) of tissue for each organ.

[15] = test system: MeWo (BRAF^wt) xenografts; experiment: Ex vivo biodistribution, MeWo xenograft bearing mice; format: in vivo, athymic nu/nu mice; conditions: 60 min p.i.
Description: as §7, §8

[16] = Ex vivo biodistribution, statements made for both xenograft lines; format: in vivo, athymic nu/nu mice
Description: as §7, §8

SMILES: CCCS(=O)(=O)Nc1ccc(F)c(C(=O)c2c[nH]c3ncc(-c4ccc(Cl)cc4)cc23)c1F [vemurafenib, Vemurafenib]
IC50 ([1]; Colo829 (BRAF^V600E), 120 h incubation, CellTiter-Blue): 0.13 µM
EC50 ([1]; printed in the picture beside the fitted curve, apparently Colo829, read-out: EC50, cell viability curve (Figure 2C)): 0.13 µM
IC50, cell viability [2]: no IC50 was observed
unconfirmed overall response rate [3]: 81%
reduction in the risk of death [4]: 63%
effect on ERK1/2 phosphorylation [5]: abolished ERK1/2 phosphorylation
effect on ERK1/2 and MEK phosphorylation [6]: rapid phosphorylation of ERK1/2 and MEK
substrate for ABC-cassette efflux transporter P-gp [7]: substrate
substrate for ABC-cassette efflux transporter BCRP [8]: substrate

intact tracer in plasma (stability) ([13]; 45 minutes after injection): > 95%
Parent (%) ([13]; 15 min p.i.): 97.8 ± 1.9%
Parent (%) ([13]; 45 min p.i.): 95.9 ± 4.4%
Tumor-to-blood ratio ([14]; Colo829 (BRAF^V600E)): 0.27 ± 0.06
Tumor-to-muscle ratio ([14]; Colo829 (BRAF^V600E)): 0.78 ± 0.18
Tumor-to-skin ratio ([14]; Colo829 (BRAF^V600E)): 0.90 ± 0.19
Tumor uptake ([14]; Colo829 tumors, 20–25 MBq): 0.87 ± 0.14 ID/g
Tumor-to-blood ratio ([15]; MeWo (BRAF^WT)): 0.29 ± 0.19
Tumor-to-muscle ratio ([15]; MeWo (BRAF^WT)): 0.72 ± 0.21
Tumor-to-skin ratio ([15]; MeWo (BRAF^WT)): 0.89 ± 0.28
Tumor uptake ([15]; MeWo tumors, 20–25 MBq): 0.49 ± 0.29 %ID/g
blood levels ([16]; after 60 minutes, xenograft bearing mice): 2–3 %ID/g
tumor-to-tissue ratios (muscle, blood, skin), all cases ([16]; both xenograft lines, 60 min p.i.): ≤ 1
SMILES: CCCS(=O)(=O)Nc1ccc(F)c([11C](=O)c2c[nH]c3ncc(-c4ccc(Cl)cc4)cc23)c1F [[^11C]vemurafenib]
binding when compared to unblocked conditions [9]: 51.2 ± 11.2%
binding when compared to unblocked conditions [10]: 65.1 ± 3.1%
cell bound + internalized fraction ([11]; 30 min, 37°C, unblocked): 74.3 ± 1.5%
cell bound + internalized fraction after pretreatment with unmodified vemurafenib ([11]; blocked): 17.0 ± 2.3%
cell bound + internalized fraction ([12]; 30 min, 37°C, unblocked): 61.6 ± 8.2%
cell bound + internalized fraction after pretreatment with unmodified vemurafenib ([12]; blocked): 20.6 ± 0.4%
